# Results taken from patent publication US8192962B2, “Processes for detecting toxic substances” (Daikin Industries, Ltd., priority 2001, dated 2012).
# Test system: DNA repair protein genes
# Experiment: DNA chip mRNA expression in yeast, DNA repair protein genes (Table 3)
# Assay type: cell-based, Saccharomyces cerevisiae S288C
# Conditions: incubated two hours, concentrations as in the 1st table
# Method: Yeast (Saccharomyces cerevisiae S288C (α SUC2mal mel gap2 CUP1)) were incubated at 25° C. on YPD medium (yeast extract 1%, polypepton 2%, glucose 2%). One of toxic chemical substances was added to the cells at logarithmic growth phase, and the cells were further incubated for two hours. Cells were cultured without any chemical substance in the same condition, and were used as control. Concentrations of the chemical substances were defined to inhibit the growth of the yeast but not lead to death.
# After completion of the incubation, the culture was centrifuged to collect the cells. To the cells, sodium acetate buffer (50 mM sodium acetate, 10 mM EDTA, 1% SDS) was added, and the mixture was shaken at 65° C. for five minutes, followed by returning to room temperature, and obtaining the supernatant, of which the procedures were repeated two times. To the supernatant, ½ amount of a solution of phenol/chloroform was added, and the mixture was centrifuged to give a supernatant, which was added with an equal amount of chloroform, and the mixture was centrifuged to give a supernatant. To the supernatant, an equal amount of isopropanol containing 0.3 M sodium acetate was added, and the mixture was allowed to stand at room temperature for 30 minutes, after which the mixture was centrifuged to give a sediment of the whole RNAs. Seventy % ethanol was added to the sediment, and the mixture was again centrifuged to give a sediment, which was then dried and dissolved in water. mRNA was isolated from the whole RNAs as followings. In view of the fact that a poly A chain is attached to the 3′ terminus of mRNA, a polynucleotide having a poly T structure which was immobilized on the surface of latex beads was used to trap the mRNA, and then the mRNA was washed and eluted with spine column (Oligotex-dT30<Super>mRNA Purification Kit, Takara). Reverse transcription of the mRNA was conducted with a reverse transcriptase (Super Script II Reverse Transcriptase; catalogue No. 18064-014, GibcoBRL) using fluorescence-labeled nucleotides to give cDNAs that were introduced with Cy3-dUTP or Cy5-dUTP during the reverse transcription.
# The labeled cDNAs were dissolved in TE buffer (10mM Tris-HCl/1 mM EDTA, pH8.0), and the solution was dropped on the DNA chip containing the whole genes of yeast (DNA Chip Research Inc. Japan) so that the cDNAs were hybridized on the DNA chip at 65° C. for over 12 hours. The fluoresces intensity of the DNA chip was read with a scanner, and the ratio relative to the fluorescence intensity resulting from the absence of chemical substance was estimated as the following, which is shown in Tables 1 to 9: […]
structure (smiles),measurement,setting,value
"[Cl][Cd][Cl] [(2), CdCl2]",The level of expressed mRNA in the presence of chemical substance/The level of expressed mRNA in the absence of chemical substance,yeast gene YAL015C,1.1
same,The level of expressed mRNA in the presence of chemical substance/The level of expressed mRNA in the absence of chemical substance,yeast gene YAR007C,1.9
same,The level of expressed mRNA in the presence of chemical substance/The level of expressed mRNA in the absence of chemical substance,yeast gene YBL019W,9.1
same,The level of expressed mRNA in the presence of chemical substance/The level of expressed mRNA in the absence of chemical substance,yeast gene YBR073W,1.0
same,The level of expressed mRNA in the presence of chemical substance/The level of expressed mRNA in the absence of chemical substance,yeast gene YBR272C,1.8
same,The level of expressed mRNA in the presence of chemical substance/The level of expressed mRNA in the absence of chemical substance,yeast gene YCR014C,1.0
same,The level of expressed mRNA in the presence of chemical substance/The level of expressed mRNA in the absence of chemical substance,yeast gene YDL017W,2.3
same,The level of expressed mRNA in the presence of chemical substance/The level of expressed mRNA in the absence of chemical substance,yeast gene YDL059C,5.1
same,The level of expressed mRNA in the presence of chemical substance/The level of expressed mRNA in the absence of chemical substance,yeast gene YDL200C,2.0
same,The level of expressed mRNA in the presence of chemical substance/The level of expressed mRNA in the absence of chemical substance,yeast gene YDR054C,1.0
same,The level of expressed mRNA in the presence of chemical substance/The level of expressed mRNA in the absence of chemical substance,yeast gene YDR369C,1.1
same,The level of expressed mRNA in the presence of chemical substance/The level of expressed mRNA in the absence of chemical substance,yeast gene YEL019C,1.6
same,The level of expressed mRNA in the presence of chemical substance/The level of expressed mRNA in the absence of chemical substance,yeast gene YEL037C,2.0
same,The level of expressed mRNA in the presence of chemical substance/The level of expressed mRNA in the absence of chemical substance,yeast gene YER162C,1.2
same,The level of expressed mRNA in the presence of chemical substance/The level of expressed mRNA in the absence of chemical substance,yeast gene YFL014W,5.1
same,The level of expressed mRNA in the presence of chemical substance/The level of expressed mRNA in the absence of chemical substance,yeast gene YGL058W,1.1
same,The level of expressed mRNA in the presence of chemical substance/The level of expressed mRNA in the absence of chemical substance,yeast gene YGL091C,1.8
same,The level of expressed mRNA in the presence of chemical substance/The level of expressed mRNA in the absence of chemical substance,yeast gene YGL127C,1.9
same,The level of expressed mRNA in the presence of chemical substance/The level of expressed mRNA in the absence of chemical substance,yeast gene YGL163C,0.8
same,The level of expressed mRNA in the presence of chemical substance/The level of expressed mRNA in the absence of chemical substance,yeast gene YGL249W,0.8
same,The level of expressed mRNA in the presence of chemical substance/The level of expressed mRNA in the absence of chemical substance,yeast gene YGR180C,1.1
same,The level of expressed mRNA in the presence of chemical substance/The level of expressed mRNA in the absence of chemical substance,yeast gene YGR231C,1.2
same,The level of expressed mRNA in the presence of chemical substance/The level of expressed mRNA in the absence of chemical substance,yeast gene YGR258C,0.9
same,The level of expressed mRNA in the presence of chemical substance/The level of expressed mRNA in the absence of chemical substance,yeast gene YHR164C,1.3
same,The level of expressed mRNA in the presence of chemical substance/The level of expressed mRNA in the absence of chemical substance,yeast gene YIL036W,1.3
same,The level of expressed mRNA in the presence of chemical substance/The level of expressed mRNA in the absence of chemical substance,yeast gene YIL072W,3.1
same,The level of expressed mRNA in the presence of chemical substance/The level of expressed mRNA in the absence of chemical substance,yeast gene YIL143C,0.8
same,The level of expressed mRNA in the presence of chemical substance/The level of expressed mRNA in the absence of chemical substance,yeast gene YIL153W,1.4
same,The level of expressed mRNA in the presence of chemical substance/The level of expressed mRNA in the absence of chemical substance,yeast gene YIR002C,1.1
same,The level of expressed mRNA in the presence of chemical substance/The level of expressed mRNA in the absence of chemical substance,yeast gene YJL026W,2.4
same,The level of expressed mRNA in the presence of chemical substance/The level of expressed mRNA in the absence of chemical substance,yeast gene YJR046W,1.2
same,The level of expressed mRNA in the presence of chemical substance/The level of expressed mRNA in the absence of chemical substance,yeast gene YJR052W,1.0
same,The level of expressed mRNA in the presence of chemical substance/The level of expressed mRNA in the absence of chemical substance,yeast gene YKL145W,1.4
same,The level of expressed mRNA in the presence of chemical substance/The level of expressed mRNA in the absence of chemical substance,yeast gene YLR103C,1.5
same,The level of expressed mRNA in the presence of chemical substance/The level of expressed mRNA in the absence of chemical substance,yeast gene YLR233C,0.9
same,The level of expressed mRNA in the presence of chemical substance/The level of expressed mRNA in the absence of chemical substance,yeast gene YLR288C,0.8
same,The level of expressed mRNA in the presence of chemical substance/The level of expressed mRNA in the absence of chemical substance,yeast gene YML032C,0.9
same,The level of expressed mRNA in the presence of chemical substance/The level of expressed mRNA in the absence of chemical substance,yeast gene YML058W,1.2
same,The level of expressed mRNA in the presence of chemical substance/The level of expressed mRNA in the absence of chemical substance,yeast gene YMR035W,1.7
same,The level of expressed mRNA in the presence of chemical substance/The level of expressed mRNA in the absence of chemical substance,yeast gene YMR072W,1.0
same,The level of expressed mRNA in the presence of chemical substance/The level of expressed mRNA in the absence of chemical substance,yeast gene YMR096W,1.7
same,The level of expressed mRNA in the presence of chemical substance/The level of expressed mRNA in the absence of chemical substance,yeast gene YMR284W,1.0
same,The level of expressed mRNA in the presence of chemical substance/The level of expressed mRNA in the absence of chemical substance,yeast gene YNL213C,11.6
same,The level of expressed mRNA in the presence of chemical substance/The level of expressed mRNA in the absence of chemical substance,yeast gene YNL250W,2.2
same,The level of expressed mRNA in the presence of chemical substance/The level of expressed mRNA in the absence of chemical substance,yeast gene YNL261W,1.3
same,The level of expressed mRNA in the presence of chemical substance/The level of expressed mRNA in the absence of chemical substance,yeast gene YNL312W,1.0
same,The level of expressed mRNA in the presence of chemical substance/The level of expressed mRNA in the absence of chemical substance,yeast gene YOL043C,0.9
same,The level of expressed mRNA in the presence of chemical substance/The level of expressed mRNA in the absence of chemical substance,yeast gene YOR005C,1.8
same,The level of expressed mRNA in the presence of chemical substance/The level of expressed mRNA in the absence of chemical substance,yeast gene YOR386W,0.8
same,The level of expressed mRNA in the presence of chemical substance/The level of expressed mRNA in the absence of chemical substance,yeast gene YPL022W,0.8
same,The level of expressed mRNA in the presence of chemical substance/The level of expressed mRNA in the absence of chemical substance,yeast gene YPL164C,0.7
same,The level of expressed mRNA in the presence of chemical substance/The level of expressed mRNA in the absence of chemical substance,yeast gene YPL194W,1.4
same,The level of expressed mRNA in the presence of chemical substance/The level of expressed mRNA in the absence of chemical substance,yeast gene YPR025C,0.8
